Measured values taken from publication PMC6492180, “Cytome micronucleus assays with a metabolically competent human derived liver cell line (Huh6): A promising approach for routine testing of chemicals?” (Environmental and Molecular Mutagenesis, 2018).
Read-outs that look alike come from different tables or passages of the source. Marks after values point to notes of the source that are not given here.

Assays:
Human lymphocytes = conditions: Human lymphocytes, + S9; ref Katic et al., 2010; cited from earlier work
HepG2 = conditions: HepG2; ref Majer et al., 2004; cited from earlier work
Hep3B = conditions: Hep3B; ref Majer et al., 2004; cited from earlier work
[1] = ref IARC (2018); cited from earlier work
Huh6 cells = system: Huh6 cells
Method: All experiments were performed in duplicate.
3.8–4.0 × 10^5 cells per well were seeded into 6‐well plates with 3 mL of RPMI (4% FBS) for 12 hr, then dilutions of stock solutions of the diagnostic mutagens were added for different time periods (4, 24, and 48 hr). In each experimental series solvent controls were included. Subsequently, the cells were washed twice with 3.0 mL medium. […] Finally, the cells were washed and trypsinised. Afterwards the cells were washed twice with 8.0 mL RPMI and collected on slides by cytocentrifugation (600 rpm, 5 min). The slides were air dried, fixed, and stained with DiffQuick according to the instructions of the manufacturer. For each experimental point, two cultures were tested per dose. From each culture ≥1,000 BN cells were evaluated under 400‐fold magnification (Nikon Photophot‐FXA, Tokyo, Japan). At least 2,000 binucleated cells were analyzed per dose for the determination of the different nuclear anomalies (MN, NBuds, and NBs).
The experiments were performed as described in the previous chapter. The cells were exposed only to one dose of the different mutagens and were cultivated after the seeding in 6‐well plates which contained 4% or 10% FBS in RPMI, respectively.
Data were evaluated by generalized linear model with Poisson counts. Chi‐square tests for overdispersion were applied. […] P values ≤0.05 were considered statistically significant.
^150-60 000 cells were seeded in 6 well plates with 3 ml RPMI (4% FBS), subsequently different solutions of the test compound (dissolved in medium) were added. After treatment for different time periods, the cells was washed and processed as described in the Material and Method section. […] From each culture 1000 binoculated cells were evaluated. BN-MN – number of micronucleated cells; MN - total number of micronuclei; CBPI – cytokinesis-block proliferation index
^1The experiments were conducted essentially as described in the footnote of Table S1A-I. *p≤0.05

HepaRG = conditions: HepaRG; ref Le Hegarat et al., 2010; cited from earlier work
[2] = 10% FBS, 24 hr treatment, 50 µM
[3] = 10% FBS, 24 hr treatment, 100 µM

Cn1c(N)nc2ncc(-c3ccccc3)cc21 [PhiP, 2‐Amino‐1‐methyl‐6‐phenylimidazo[4,5‐b]pyridine]
Lowest effective concentration (LOEC) in micronucleus experiments (Human lymphocytes): 2.5 + S9 (Katic et al., 2010) μM
Lowest effective concentration (LOEC) in micronucleus experiments (HepG2): 25.0 (Majer et al., 2004) μM
Lowest effective concentration (LOEC) in micronucleus experiments (Hep3B): Negative
NOEC (highest no observable effect concentration tested) (Hep3B): 300.0 µM
IARC classification [1]: Formation of guanine adducts; activation: CYP1A2 and SULT; detoxification: GSTs; IARC: Group 2B
MN effects after 24 hr (or longer) compared with 4 hr treatment (in words) (Huh6 cells; 4% FBS): more pronounced effects
BN-MN (number of micronucleated cells) (Huh6 cells; 4% FBS, 4hrs, 25 µM): 23.5 ± 0.7 ‰
Bridges (Huh6 cells; 4% FBS, 4hrs, 25 µM): 0.5 ± 0.7 ‰
Buds (Huh6 cells; 4% FBS, 4hrs, 25 µM): 18.0 ± 5.7 ‰
CBPI (Huh6 cells; 4% FBS, 4hrs, 25 µM): 1.7 ± 0.1
MN (total number of micronuclei) (Huh6 cells; 4% FBS, 4hrs, 25 µM): 23.5 ± 0.7 ‰
BN-MN (number of micronucleated cells) (Huh6 cells; 4% FBS, 4hrs, 50 µM): 22.5 ± 2.1 ‰
Bridges (Huh6 cells; 4% FBS, 4hrs, 50 µM): 2.0 ± 1.4 ‰
Buds (Huh6 cells; 4% FBS, 4hrs, 50 µM): 19.0 ± 7.1 ‰
CBPI (Huh6 cells; 4% FBS, 4hrs, 50 µM): 1.6 ± 0.2
MN (total number of micronuclei) (Huh6 cells; 4% FBS, 4hrs, 50 µM): 22.5 ± 2.1 ‰
BN-MN (number of micronucleated cells) (Huh6 cells; 4% FBS, 4hrs, 100 µM): 26 ± 1.4 ‰
Bridges (Huh6 cells; 4% FBS, 4hrs, 100 µM): 1.5 ± 0.7 ‰
Buds (Huh6 cells; 4% FBS, 4hrs, 100 µM): 23.5 ± 6.4 ‰
CBPI (Huh6 cells; 4% FBS, 4hrs, 100 µM): 1.7 ± 0.0
MN (total number of micronuclei) (Huh6 cells; 4% FBS, 4hrs, 100 µM): 28 ± 1.4 ‰
BN-MN (number of micronucleated cells) (Huh6 cells; 4% FBS, 24hrs, 25 µM): 17.5 ± 2.1 ‰
Bridges (Huh6 cells; 4% FBS, 24hrs, 25 µM): 0.0 ± 0.0 ‰
Buds (Huh6 cells; 4% FBS, 24hrs, 25 µM): 10.5 ± 0.7 ‰
CBPI (Huh6 cells; 4% FBS, 24hrs, 25 µM): 1.9 ± 0.1
MN (total number of micronuclei) (Huh6 cells; 4% FBS, 24hrs, 25 µM): 17.5 ± 2.1 ‰
BN-MN (number of micronucleated cells) (Huh6 cells; 4% FBS, 24hrs, 50 µM): 26.5 ± 0.7* ‰
Bridges (Huh6 cells; 4% FBS, 24hrs, 50 µM): 1.5 ± 0.7 ‰
Buds (Huh6 cells; 4% FBS, 24hrs, 50 µM): 24.5 ± 0.7* ‰
CBPI (Huh6 cells; 4% FBS, 24hrs, 50 µM): 1.8 ± 0.0
MN (total number of micronuclei) (Huh6 cells; 4% FBS, 24hrs, 50 µM): 30.0 ± 1.4* ‰
BN-MN (number of micronucleated cells) (Huh6 cells; 4% FBS, 24hrs, 100 µM): 49.5 ± 2.1* ‰
Bridges (Huh6 cells; 4% FBS, 24hrs, 100 µM): 3.0 ± 0.0 ‰
Buds (Huh6 cells; 4% FBS, 24hrs, 100 µM): 34.0 ± 1.4* ‰
CBPI (Huh6 cells; 4% FBS, 24hrs, 100 µM): 1.9 ± 0.0
MN (total number of micronuclei) (Huh6 cells; 4% FBS, 24hrs, 100 µM): 49.5 ± 2.1* ‰
BN-MN (number of micronucleated cells) (Huh6 cells; 4% FBS, 48hrs, 25 µM): 20.0 ± 1.4 ‰
Bridges (Huh6 cells; 4% FBS, 48hrs, 25 µM): 0.0 ± 0.0 ‰
Buds (Huh6 cells; 4% FBS, 48hrs, 25 µM): 20.5 ± 3.5 ‰
CBPI (Huh6 cells; 4% FBS, 48hrs, 25 µM): 1.9 ± 0.1
MN (total number of micronuclei) (Huh6 cells; 4% FBS, 48hrs, 25 µM): 20.5 ± 0.7 ‰
BN-MN (number of micronucleated cells) (Huh6 cells; 4% FBS, 48hrs, 50 µM): 20.5 ± 3.5 ‰
Bridges (Huh6 cells; 4% FBS, 48hrs, 50 µM): 0.5 ± 0.7 ‰
Buds (Huh6 cells; 4% FBS, 48hrs, 50 µM): 22.0 ± 4.2 ‰
CBPI (Huh6 cells; 4% FBS, 48hrs, 50 µM): 1.9 ± 0.0
MN (total number of micronuclei) (Huh6 cells; 4% FBS, 48hrs, 50 µM): 21.5 ± 3.5 ‰
BN-MN (number of micronucleated cells) (Huh6 cells; 4% FBS, 48hrs, 100 µM): 22.0 ± 1.4 ‰
Bridges (Huh6 cells; 4% FBS, 48hrs, 100 µM): 0.5 ± 0.7 ‰
Buds (Huh6 cells; 4% FBS, 48hrs, 100 µM): 29.5 ± 0.7* ‰
CBPI (Huh6 cells; 4% FBS, 48hrs, 100 µM): 1.8 ± 0.2
MN (total number of micronuclei) (Huh6 cells; 4% FBS, 48hrs, 100 µM): 24.0 ± 1.4 ‰
BN-MN (number of micronucleated cells) (Huh6 cells; [2]): 50.0 ± 2.8*
Bridges (Huh6 cells; [2]): 1.0 ± 1.4
Buds (Huh6 cells; [2]): 50.0 ± 1.4
CBPI (Huh6 cells; [2]): 2.0 ± 0.1
MN (total number of micronuclei) (Huh6 cells; [2]): 56.5 ± 2.1*
BN-MN (number of micronucleated cells) (Huh6 cells; [3]): 55.0 ± 11.3*
Bridges (Huh6 cells; [3]): 1.5 ± 0.7
Buds (Huh6 cells; [3]): 60.0 ± 7.1*
CBPI (Huh6 cells; [3]): 1.8 ± 0.0
MN (total number of micronuclei) (Huh6 cells; [3]): 61 ± 12.7*
MN frequencies with 10% serum compared with 4% serum (in words) (Huh6 cells; 24 hr treatment): stronger effects
Lowest effective concentration (LOEC) in micronucleus experiments (Huh6 cells; Huh6): 50.0 µM
Lowest effective concentration (LOEC) in micronucleus experiments (HepaRG): Negative
NOEC (highest no observable effect concentration tested) (HepaRG): 320.0 µM
